{
  "source": "paper PMC3586668",
  "about": "(PLoS ONE, 2013)",
  "key": {"[1]": {"test": "Polypeptide transport across 3-day Caco-2 monolayers (ELISA)", "assay_type": "in vitro ADME, Human", "conditions": "human, 3-day Caco-2, apical-to-basolateral, room temperature, gentle shaking, mean±SD n = 3, read-out: Apparent Permeability (Papp)", "method": "(§1) Transport of three different macromolecular pharmaceutical peptides was studied across the Caco-2 monolayers at different loading concentrations. […] Different doses were selected for different polypeptides based upon the values reported in literature to not only approach therapeutic efficacy but also to provide a valid comparison with the results obtained in 21-day monolayer system. Polypeptides were incubated with Caco-2 monolayers for 5 hrs at room temperature with gentle shaking. TEER measurements were performed and samples were collected from basolateral chambers of the Caco-2 plates to determine total drug transport and apparent permeability at different concentrations."}, "Caco-2 monolayers [2]": {"tested_on": "Caco-2 monolayers", "test": "Polypeptide transport across 3-day Caco-2 monolayers (ELISA)", "assay_type": "in vitro ADME, Human", "conditions": "3-day Caco-2, apical-to-basolateral, room temperature, mean±SD n = 3; for Total amount transported to the basolateral side: 5 h", "method": "as §1"}, "rat jejunum": {"tested_on": "rat jejunum", "parameters": "method as in 2 sources, ref 33 = [33]; PMID 21501675; doi:10.1016/j.ijpharm.2011.04.003; 33 Woitiski CB , Sarmento B , Carvalho RA , Neufeld RJ , Veiga F ( 2011 ) Facilitated nanoscale delivery of insulin across intestinal membrane models . Int J Pharm 412 : 123 – 131 . 21501675 10.1016/j ||| ref 36 = [36]; PMID 10227707; doi:10.1023/a:1018819012405; 36 Sinko PJ , Lee YH , Makhey V , Leesman GD , Sutyak JP , et al ( 1999 ) Biopharmaceutical approaches for developing and assessing oral peptide delivery strategies and systems: in vitro permeability", "conditions": "cited from earlier work"}, "Caco-2 monolayers [3]": {"tested_on": "Caco-2 monolayers", "test": "Validation of 3-day Caco-2 transwell system: FITC-insulin and sulforhodamine-B transport (fluorescence)", "conditions": "for Apparent Permeability (Papp) / % Transport in 5 hours / Cumulative amount transported to basolateral chamber: room temperature, fluorescence, mean±SD n = 3; for Apparent Permeability (Papp): gentle shaking; for Cumulative amount transported to basolateral chamber: after 5 h", "procedure": "(§2) Human colorectal adenocarcinoma Caco-2 cell line (HTB-37) obtained from American Type culture Collection (ATCC) (Manassas, VA, USA) was used for all experiments. Cell lines were maintained as per the provider's protocol. Cell culture was performed in Hyclone® DMEM high glucose medium (Thermo Fisher Scientific, Pittsburgh, PA, USA) supplemented with 50 IU/ml of penicillin, 50 mg/L of streptomycin, and 100 ml/L of fetal bovine serum at 37°C in a humidity-controlled 5% CO2 cell culture incubator. Cells were split at a ratio of 1∶3 after reaching 90% confluence. All transwell experiments were performed with cells between 5th–14th passages due to possible phenotypic differences between cells from high and low passage intervals. Cells were cultivated for at least 2 passages before seeding onto transwell filter supports to stabilize the cell phenotype 12].\n(§3) Transwell experiments were performed with slight modifications to the protocols provided by the manufacturer (BD Biosciences, Bedford, MA, USA). For the development of the transwell assay system for permeability experiments, Caco-2 cells were seeded onto fibrillar collagen coated polyethylene terephthalate (PET) filter supports (1 µm pore size) of BD Biocoat™ HTS Caco-2 assay system (BD Biosciences, Bedford, MA, USA) according to manufacturer's protocol with slight modifications. Briefly, Caco-2 cells were seeded onto the filter supports at a concentration of 200,000 cells/insert (6.6×10^5 cells/cm^2) using basal seeding medium (with MITO+ serum extender) provided in the HTS system, and were incubated in cell culture incubator (37°C, 5% CO2). Cells were fed from both sides using the Multiwell feeder tray. After 24 hrs, the feeding medium was replaced with MITO+ serum extender supplemented Entero-STIM medium, and growing monolayers were incubated as described earlier. Upon incubation for 48–72 hrs, Caco-2 cells developed a tight junction monolayer, integrity of which was determined by TEER measurements.\n(§4) The integrity of Caco-2 monolayer was determined by measuring the transepithelial electrical resistance (TEER) of the cell monolayer grown on filter supports using Millicell-ERS electrical resistance measuring system (Millipore, Bedford, MA) using chopstick electrodes. Briefly, the Caco-2 inserts were transferred to a 24-well culture plate with 1400 µl medium in the feeding well, and 500 µl in culture inserts. The electrodes were immersed in a way that shorter electrode was in the insert and longer electrode in the outer well. […] Based on the literature, a resistance reading of 150–200 Ω.cm^2 was considered as indicative of a confluent Caco-2 monolayer with tight junctions.\n(§5) Briefly, cells were pre-conditioned with basal seeding medium for 30 minutes before starting the experiment at 37°C. […] The basolateral chamber consisted 1400 µl of the same growth medium as per manufacturer's protocol. The plates were incubated for 5 hrs at room temperature with gentle shaking (5 rocks/minute on a rocker, so as to mimic intestinal peristaltic movement). TEER measurements were performed at predetermined time intervals (0. 0.25, 0.5, 1, 2, 3, and 5 hrs). At the same time-points, 100 µl samples were withdrawn from the basolateral chamber to quantify the total amount of FITC-ins/sulforhodamine-B transported across the monolayer. The withdrawn sample was immediately replaced with equivalent amount of the experimental medium.\n(§6) The apparent permeability coefficients (Papp) of all polypeptides were calculated using the following equation 19]: [drawing 1]\n(§7) Where dQ/dt is the amount of solutes transported across the Caco-2 barrier in time dt, C0 is the solute concentration in apical compartment at time zero, and A is the cross-sectional area of the epithelium in contact with apical solution. Total percent drug transport was calculated by dividing the cumulative amount of molecules transported with the original loading concentrations."}, "Caco-2 monolayers [4]": {"tested_on": "Caco-2 monolayers", "procedure": "as §2, §3, §4, §5, §6, §7"}, "[5]": {"conditions": "apical loading 0.005 mg (5 µg/well)"}, "[6]": {"conditions": "apical loading 0.024 mg (24 µg/well)"}},
  "note": "Where two headings read alike, the source gives them in different places.",
  "data": [
    {"molecule": "CC(C)C[C@H](NC(=O)[C@H](CCCCN)NC(=O)CNC(=O)[C@H](CC(C)C)NC(=O)[C@@H](NC(=O)[C@@H]1CSSC[C@H](N)C(=O)N[C@@H](CO)C(=O)N[C@@H](CC(N)=O)C(=O)N[C@@H](CC(C)C)C(=O)N[C@@H](CO)C(=O)N[C@@H]([C@@H](C)O)C(=O)N1)C(C)C)C(=O)N[C@@H](CO)C(=O)N[C@@H](CCC(N)=O)C(=O)N[C@@H](CCC(=O)O)C(=O)N[C@@H](CC(C)C)C(=O)N[C@@H](Cc1c[nH]cn1)C(=O)N[C@@H](CCCCN)C(=O)N[C@@H](CC(C)C)C(=O)N[C@@H](CCC(N)=O)C(=O)N[C@H](C(=O)N[C@@H](Cc1ccc(O)cc1)C(=O)N1CCC[C@H]1C(=O)N[C@@H](CCCNC(=N)N)C(=O)N[C@H](C(=O)N[C@@H](CC(N)=O)C(=O)N[C@H](C(=O)NCC(=O)N[C@@H](CO)C(=O)NCC(=O)N[C@H](C(=O)N1CCC[C@H]1C(N)=O)[C@@H](C)O)[C@@H](C)O)[C@@H](C)O)[C@@H](C)O", "note": "[Salmon Calcitonin]", "values": [
      {"measurement": "Papp A→B at 5 h, 5 µg/well", "setting": "[1]; [5]", "result": "2 ± 0.07", "unit": "×10⁻⁶ cm/s"},
      {"measurement": "Papp A→B at 5 h, 24 µg/well", "setting": "[1]; [6]", "result": "1.5 ± 0.7", "unit": "×10⁻⁶ cm/s"},
      {"measurement": "Total amount transported to the basolateral side", "setting": "Caco-2 monolayers [2]; apical loading 5 µg/well", "result": "55 ± 2", "unit": "ng"},
      {"measurement": "% Transport in 5 hours", "setting": "Caco-2 monolayers [2]; [5]", "result": "1.1±0.04", "unit": "%"},
      {"measurement": "% Transport in 5 hours", "setting": "Caco-2 monolayers [2]; [6]", "result": "0.8±0.4", "unit": "%"},
      {"measurement": "Total amount transported to the basolateral side", "setting": "Caco-2 monolayers [2]; apical loading 24 µg/well", "result": "192 ± 95", "unit": "ng"},
      {"measurement": "Permeability through rat jejunum", "setting": "rat jejunum", "result": "1.9±0.5 ×10^−6 cm/sec"}
    ]},
    {"molecule": "CCN(CC)c1ccc2c(-c3ccc(S(=O)(=O)O)cc3S(=O)(=O)[O-])c3ccc(=[N+](CC)CC)cc-3oc2c1", "note": "[Sulforhodamine-B, sulforhodamine B]", "values": [
      {"measurement": "Apparent Permeability (Papp)", "setting": "Caco-2 monolayers [3]; 3-day Caco-2 (BD Biocoat HTS, serum-free), apical-to-basolateral, apical loading 0.05 mg/well in 500 µl basal seeding medium, 30 min pre-conditioning, 5 h", "result": "5.0±2.9 10^−6 cm/s"},
      {"measurement": "% Transport in 5 hours", "setting": "Caco-2 monolayers [3]; 3-day Caco-2, apical-to-basolateral, apical loading 0.05 mg/well, 5 h", "result": "2.8±1.6", "unit": "%"},
      {"measurement": "Cumulative amount transported to basolateral chamber", "setting": "Caco-2 monolayers [3]; 3-day Caco-2, apical-to-basolateral, apical loading 0.05 mg/well", "result": "0.002 ± 0.0008", "unit": "mg"},
      {"measurement": "Apparent Permeability (Papp)", "setting": "Caco-2 monolayers [3]; 3-day Caco-2, apical-to-basolateral, apical loading 0.3 mg/well in 500 µl, 5 h", "result": "5.3±0.8 10^−6 cm/s"},
      {"measurement": "% Transport in 5 hours", "setting": "Caco-2 monolayers [3]; 3-day Caco-2, apical-to-basolateral, apical loading 0.3 mg/well, 5 h", "result": "2.9±0.4", "unit": "%"},
      {"measurement": "Cumulative amount transported to basolateral chamber", "setting": "Caco-2 monolayers [3]; 3-day Caco-2, apical-to-basolateral, apical loading 0.3 mg/well", "result": "0.009 ± 0.001", "unit": "mg"},
      {"measurement": "Apparent Permeability (Papp)", "setting": "Caco-2 monolayers [3]; 3-day Caco-2, apical-to-basolateral, apical loading 0.6 mg/well in 500 µl, 5 h", "result": "4.0±0.6 10^−6 cm/s"},
      {"measurement": "% Transport in 5 hours", "setting": "Caco-2 monolayers [3]; 3-day Caco-2, apical-to-basolateral, apical loading 0.6 mg/well, 5 h", "result": "2.3±0.4", "unit": "%"},
      {"measurement": "Cumulative amount transported to basolateral chamber", "setting": "Caco-2 monolayers [3]; 3-day Caco-2, apical-to-basolateral, apical loading 0.6 mg/well", "result": "0.01 ± 0.002", "unit": "mg"},
      {"measurement": "Apparent Permeability (Papp)", "setting": "Caco-2 monolayers [3]; 3-day Caco-2, apical-to-basolateral, apical loading […] in 500 µl, 5 h", "result": "4.9±0.9 10^−6 cm/s"},
      {"measurement": "Effect on Caco-2 monolayer integrity during transport", "setting": "Caco-2 monolayers [3]; 3-day Caco-2, different loading concentrations, 5 h, TEER", "result": "without damaging the monolayer"}
    ]},
    {"molecule": "FITC-Insulin: fluorescein isothiocynate conjugated bovine insulin (Sigma Aldrich)", "values": [
      {"measurement": "Apparent permeability coefficients (Papp), range over the loadings studied", "setting": "Caco-2 monolayers [4]", "result": "8.2±1.8-10.5±1.8"},
      {"measurement": "Effect on Caco-2 monolayer integrity during transport", "setting": "Caco-2 monolayers [4]", "result": "without damaging the monolayer"}
    ]}
  ]
}
